The subject of this assay is NCL PNCs. Briefly: Autofluorescent storage material (ASM) in Batten disease primary neuronal cultures. In kind it is cell-based, mouse. The protocol:
Specific experimental details are included in figure legends. […] On DIV7, cells were treated with the following dyes: Hoechst 33342 (1:1000 dilution), LysoTrackerT™ Red DND-99 (1:10,000 dilution), fixed, and imaged. Mice were given vehicle or AF38469 (78.125 μg/ml, 3.125 μg/ml, 0.3125 μg/ml or 0.03125 μg/ml equating approximately to 250 μg/mouse/day, 10 μg/mouse/day, 1 μg/mouse/day, and […], respectively, given a mouse's daily water intake of approximately 3.2 ml per day) in drinking water beginning at wean. Body weight was measured bi-weekly, and a force actimeter test was performed on Cln2^R207X mice at 10 weeks of age. Body weight was measured every month for Cln3^Δex7/8 mice. At 11 and 16 weeks of age, respectively, Cln2^R207X and Cln3^Δex7/8 mice along with age matched wild type control mice were CO2 euthanized and intracardially perfused with PBS. Brains were collected and placed on a 1 mm sagittal brain block. Brains were sliced at the midline and 3 mm right of the midline. One hemisphere was fixed in 4% PFA and sectioned at 50 microns on a vibratome. Immunohistochemistry was performed on free-floating sections. For mitochondrial ATP synthase subunit C (SubC), glial fibrillary acidic protein (GFAP), and cluster of differentiation 68 (CD68) immunolabeling, primary antibodies included anti-SubC (Abcam, ab181243; 1:1000), anti-GFAP (Dako, Z0334; 1:5000), anti-CD68 (AbD Serotec, MCA1957; 1:2000), and secondary antibodies included anti-rabbit biotinylated (Vector Labs, BA-1000 1:1000) and anti-rat (Vector Labs, BA-9400 1:1000). Coverslips were mounted on slides using antifade-mounting media and were stored in the dark before imaging. Sections were imaged and analyzed using an Aperio Digital Pathology Slide Scanner (AT2) and associated software. Images were extracted from S1BF of the somatosensory cortex and the VPM/VPL of the thalamus, with multiple images taken of multiple tissues from each animal.
• An increase in percent area or total area of positive autofluorescent storage material (ASM) signal in untreated NCL MEFs or PNCs relative to age-matched, wild type MEFs or PNCs is considered an increase in the accumulation of autofluorescent storage material, reflecting disease-related lysosomal dysfunction. • A decrease in percent area or total area of positive autofluorescent storage material signal in AF38469 treated MEFs and PNCs relative to age-matched, vehicle treated MEFs and PNCs is considered a reduction in the accumulation of autofluorescent storage material and thus a decrease in disease-related lysosomal dysfunction. • LysoTracker™ is an acidophilic dye that labels lysosomes and accumulation increases with an increase in lysosome size or number. Cell and mouse models of lysosomal storage disorders often have increased accumulation of lysosomes and therefore have a stronger LysoTracker™ signal. […]

On to `Cc1cccc(NC(=O)c2ccc(C(F)(F)F)cc2C(=O)O)n1` [AF38469, 2-((6-methylpyridin-2-yl)carbamoyl)-5-(trifluoromethyl)benzoic acid], for which the “accumulation of autofluorescent storage material (ASM)” value (40 nM, 400 nM, 4 μM, Cln1^R151X, Cln2^R207X, Cln3^Δex7/8, Cln6^nclf PNCs, DIV7) was “significantly reduced”. Moreover, the ASM levels entry (Cln8^mnd PNCs, DIV7) is “significantly increased”.

In the case of `CC[C@H](C)[C@H](N)C(=O)NCCN1CCOCC1` [LM11A-31, N-[2-(morpholin-4-yl)ethyl]-L-isoleucinamide], the “accumulation of autofluorescent storage material (ASM)” value is recorded as “significantly reduced” (LM11A-31 100 nM, Cln6^nclf and Cln8^mnd PNCs); “significantly reduced” (LM11A-31 1 μM, Cln1^R151X PNCs); “significantly reduced” (LM11A-31 1 μM, Cln3^Δex7/8 PNCs); “significantly reduced” (LM11A-31 all treatment groups, Cln2^R207X PNCs). Further, under “LM11A-31 varying doses, neurons of all tested NCLs”, the ASM entry was “significantly reduced”.

As to semaglutide, the “autofluorescent storage material (ASM) signal” value (semaglutide 10 nM, 100 nM, 1 μM, Cln2^R207X and Cln6^nclf PNCs) is given as “significantly reduced”. Moreover, the ASM levels result by setting is: (semaglutide 10 nM, 100 nM, Cln3^Δex7/8 PNCs) “significantly reduced”; (semaglutide 10 nM, 1 μM, Cln1^R151X PNCs) “significantly reduced”; (semaglutide 10 nM, 1 μM, Cln8^mnd PNCs) “significantly reduced”; (semaglutide 100 nM, Cln1^R151X PNCs) “had no impact”; (semaglutide 100 nM, Cln8^mnd PNCs) “significantly elevated”; (semaglutide 1 μM, Cln3^Δex7/8 PNCs) “significantly elevated”.
